Target: T1, T-type calcium channels (α1G) (Homo sapiens, UniProt O43497)
T1 construct: expressed in transfected cells
Assay: T-type calcium channel block, whole-cell voltage clamp in HEK293 cells
Type: cell-based
Settings: α1G stably expressed in HEK293 cells, step to −30 mV from holding potential −110 mV
Protocol: T-type calcium channels (α1G) were stably expressed in HEK293 cells and maintained at 37° C. in DMEM. Cells were released from dishes using trypsin and EGTA or Accutase and studied within 4 hours of isolation. Individual cells were placed on the stage of an inverted microscope and patched with pipettes pulled from aluminasilicate glass capillary tubes, which had resistances of 0.8-1.5 Mohm. Currents were recorded using an Axopatch 200 (Axon Instruments, Inc.) and pClamp data acquisition software (8.1). The pipette solution contained (in mM): KCl 130, EGTA 11, HEPES 10, MGATP 5, pH ═7.4. The bath solution contained (in mM): NaCl 140, CaCl2 1, HEPES 10, pH═7.4. Test compounds were diluted into bath solution to the desired concentration (100 nM-10 μM) from a stock solutions (3 or 10 mM in DMSO). Current measurements were made at 20-23° C. Cells were held at −110 mV in order to maximize occupancy in the closed state and depolarized for 100 ms to various potentials. Currents were capacity corrected using 16-64 subthreshold responses (voltage steps of 10 or 20 mV) and leak subtracted, based on linear interpolation between the current at the holding potential and 0 mV. Cells were moved from a control chamber to a chamber with test compound and the effect of the drug was assessed using a voltage clamp protocol that stepped to −30 mV for 100 ms from a holding potential of −110 mV once every 5 s. After each 10-13 minutes, the train protocol was interrupted and a full current voltage relationship obtained. In general for each compound, four cells were studied for a minimum of 13 minutes, two in drug at 500 nM and two at 1 μM. In some cases other concentrations were also studied. Data were analyzed using Matlab (Mathworks, Natick, Mass.). Drug efficacy was estimated using the relationship: Blocked Fraction=[Drug]/(IC50+[Drug])

T1 sequence (O43497 whole entry): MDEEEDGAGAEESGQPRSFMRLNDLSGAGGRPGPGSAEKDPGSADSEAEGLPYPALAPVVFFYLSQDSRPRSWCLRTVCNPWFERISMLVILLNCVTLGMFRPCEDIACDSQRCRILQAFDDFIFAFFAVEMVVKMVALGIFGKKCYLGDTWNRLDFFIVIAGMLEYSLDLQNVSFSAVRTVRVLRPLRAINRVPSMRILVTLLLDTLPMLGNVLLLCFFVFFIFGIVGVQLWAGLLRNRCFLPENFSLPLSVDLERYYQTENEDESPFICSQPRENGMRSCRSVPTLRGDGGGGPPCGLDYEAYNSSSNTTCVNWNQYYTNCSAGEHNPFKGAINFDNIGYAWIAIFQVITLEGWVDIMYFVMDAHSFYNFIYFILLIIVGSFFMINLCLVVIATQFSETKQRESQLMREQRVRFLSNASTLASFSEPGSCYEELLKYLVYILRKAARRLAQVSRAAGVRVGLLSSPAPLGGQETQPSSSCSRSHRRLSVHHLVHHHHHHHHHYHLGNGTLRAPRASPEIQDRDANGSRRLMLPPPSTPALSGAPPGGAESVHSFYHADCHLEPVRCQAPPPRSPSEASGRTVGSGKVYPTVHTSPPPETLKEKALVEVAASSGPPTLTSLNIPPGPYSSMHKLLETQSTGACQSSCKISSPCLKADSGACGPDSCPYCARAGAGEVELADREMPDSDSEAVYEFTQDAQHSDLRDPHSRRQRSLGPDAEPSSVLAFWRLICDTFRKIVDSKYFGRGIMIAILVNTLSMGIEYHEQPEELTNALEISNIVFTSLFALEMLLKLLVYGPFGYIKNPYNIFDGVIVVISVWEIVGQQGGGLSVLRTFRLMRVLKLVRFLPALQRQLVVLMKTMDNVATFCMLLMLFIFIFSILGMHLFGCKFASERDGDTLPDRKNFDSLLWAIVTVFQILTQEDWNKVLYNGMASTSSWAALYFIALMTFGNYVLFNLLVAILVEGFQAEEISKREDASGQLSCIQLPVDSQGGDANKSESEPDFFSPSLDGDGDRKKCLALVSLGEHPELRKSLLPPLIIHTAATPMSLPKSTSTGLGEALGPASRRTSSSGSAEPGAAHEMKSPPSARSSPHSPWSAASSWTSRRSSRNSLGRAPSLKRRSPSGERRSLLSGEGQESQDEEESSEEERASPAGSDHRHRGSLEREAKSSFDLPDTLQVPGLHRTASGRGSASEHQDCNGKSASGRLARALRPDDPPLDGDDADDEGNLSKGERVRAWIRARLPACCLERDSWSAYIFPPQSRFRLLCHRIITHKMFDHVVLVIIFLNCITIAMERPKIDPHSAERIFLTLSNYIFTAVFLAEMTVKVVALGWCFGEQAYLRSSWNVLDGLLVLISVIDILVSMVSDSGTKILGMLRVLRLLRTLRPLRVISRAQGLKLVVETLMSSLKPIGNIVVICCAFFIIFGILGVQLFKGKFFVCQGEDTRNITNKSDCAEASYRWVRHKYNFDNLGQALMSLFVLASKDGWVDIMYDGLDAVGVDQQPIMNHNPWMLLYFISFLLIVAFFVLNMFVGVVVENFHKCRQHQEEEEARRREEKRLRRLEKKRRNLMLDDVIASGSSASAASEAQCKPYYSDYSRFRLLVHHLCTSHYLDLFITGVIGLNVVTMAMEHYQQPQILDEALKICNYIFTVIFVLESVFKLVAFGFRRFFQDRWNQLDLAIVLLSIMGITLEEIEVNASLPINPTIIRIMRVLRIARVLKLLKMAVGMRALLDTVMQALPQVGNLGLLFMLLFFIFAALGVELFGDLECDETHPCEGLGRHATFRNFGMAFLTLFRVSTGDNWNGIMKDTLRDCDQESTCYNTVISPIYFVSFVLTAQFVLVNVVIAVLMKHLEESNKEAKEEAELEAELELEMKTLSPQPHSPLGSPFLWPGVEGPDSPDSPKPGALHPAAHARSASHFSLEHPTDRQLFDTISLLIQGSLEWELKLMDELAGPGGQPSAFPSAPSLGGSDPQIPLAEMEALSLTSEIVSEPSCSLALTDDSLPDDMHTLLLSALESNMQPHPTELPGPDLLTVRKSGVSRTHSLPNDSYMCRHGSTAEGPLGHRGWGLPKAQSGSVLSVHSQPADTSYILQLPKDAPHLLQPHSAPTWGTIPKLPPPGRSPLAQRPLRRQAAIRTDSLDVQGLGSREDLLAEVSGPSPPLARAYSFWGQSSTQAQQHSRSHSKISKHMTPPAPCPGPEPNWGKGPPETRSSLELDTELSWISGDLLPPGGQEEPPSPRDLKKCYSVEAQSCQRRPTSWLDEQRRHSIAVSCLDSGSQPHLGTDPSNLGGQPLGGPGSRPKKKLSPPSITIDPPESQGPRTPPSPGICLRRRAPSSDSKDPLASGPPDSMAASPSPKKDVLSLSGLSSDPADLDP

| % of calcium channels blocked (1 μM of comp'd) [%] | % of calcium channels blocked (500 nM of comp'd) [%] | Compound |
| --- | --- | --- |
| 80 |  | CCCCCCCCCCCCCCCc1cccc(OC(C)C)c1C1C(C(=O)OC)=C(C)NC(C)=C1C(=O)OC [DHP-5, dimethyl 1,4-dihydro-4-(2′-isopropoxy-6′-pentadecylphenyl)-2,6-dimethyl-3,5-pyridine dicarboxylate] |
| 77 | 5 | CCCCCCCCCCCCCCCc1cccc(OCC)c1C1C(C(=O)OCC)=C(C)NC(C)=C1C(=O)OC(C)C (stereo not shown) [DHP-12, ethyl isopropyl 1,4-dihydro-4-(2′-ethoxy-6′-pentadecylphenyl)-2,6-dimethyl-3,5-pyridine dicarboxylate] |
| 90 | 75 | COCC(=O)O[C@]1(CCN(C)CCCc2nc3ccccc3[nH]2)CCc2cc(F)ccc2[C@@H]1C(C)C [Mibefradil] |
| 15 | 0 | COC(=O)C1=C(C)NC(C)=C(C(=O)OC)C1c1ccccc1[N+](=O)[O-] [Nifedipine] |

Reference: patent publication US7235570B2, “1,4-dihydropyridine and pyridine compounds as calcium channel blockers” (Vittal Mallya Scientific Research, priority 2002, dated 2007)
